The results in this text go back to patent US20110009469A1, “COMPOSITIONS AND METHODS OF TREATING NEOPLASIA” (The Johns Hopkins University, priority 2007, published 2011).

What all share (assay type): cell-based
Assay [1] has as its system miR-143 and miR-145 expression in HPNE-Kras^G12D cells. Description: miR-143 and miR-145 expression by northern blot and qRT-PCR in HPNE-Kras^G12D cells. Particulars: HPNE-Kras^G12D cells treated with inhibitor. From the text:
(§1) Vista was used to generate pairwise alignments between the genomic sequence from human (May 2004 assembly) and the indicated species. The graph is a plot of nucleotide identity for a 100-bp sliding window centered at a given position. […] Expression of RNA transcripts was normalized to β-actin. FIG. 3C is a graph showing the results of a quantitative RT-PCR analysis of miR-143 and miR-145 expression in the cell lines described above. miRNA expression was normalized to 18S RNA. Error bars represent standard deviations.
(§2) U6 served as a loading control. […] Error bars represent standard deviations.
(§3) HPNE-Kras^G12D cells were infected with the anti-RREB-1 lentivirus-shRNA construct and selected in neomycin.
(§4) Kras activity leads to activation of both the Map Kinase (MAPK) cascade (also known as the RAF/MEK/MAPK pathway) and the phosphatidylinositol-3 kinase (PI3K) pathway. In order to determine which of these downstream effector pathways is involved in the Kras-RREB1-miR-143/145 pathway, levels of miR-143 and miR-145 were examined in HPNE-Kras^G12D cells treated with specific inhibitors that target MAPK and PI3K.
For orientation: In qPCR the cycle at which signal appears reflects the starting amount.

Assay [2] relates to miR-143/145 primary transcript in HPNE-Kras^G12D cells. Description: quantitative RT-PCR of miR-143/145 primary transcript in HPNE-Kras^G12D cells. Particulars: HPNE-Kras^G12D cells treated with inhibitor; qRT-PCR.
Source text: as §1, §2, §3, §4

The test system of assay [3] is RREB-1 expression in HPNE-Kras^G12D cells. Description: qPCR of RREB-1 expression in HPNE-Kras^G12D cells. The settings on record: HPNE-Kras^G12D cells treated with inhibitor.
Source text: as §1, §2, §3, §4

`O=c1cc(N2CCOCC2)oc2c(-c3ccccc3)cccc12` [LY294002]: in assay [1], the “miR-143 and miR-145 expression” value is listed as “no effect”.

Regarding `N#CC(=C(/N)Sc1ccccc1N)/C(C#N)=C(\N)Sc1ccccc1N` [U0126, 1,4-diamino-2,3-dicyano-1,4-bis(2-aminophenylthio)butadiene], the “miR-143 and miR-145 expression” value in assay [1] is “significant increase”. For the same molecule, the “level of the miR-143/145 primary transcript” value in assay [2] is recorded as “increased”. Further, the RREB-1 expression result in assay [3] was “decreased”.
